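Grown in 96-well plates, cells were treated for 48 hours with each compound at five concentrations. Insufficient inhibition: endpoint recorded as highest concentration tested. At the GI50, growth is halved. TGI is the concentration that stops growth completely.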
Legend:
Assay in all cases: inhibition of tumour cell growth, NCI panel, 48 h
MCF7 breast = tested on: MCF7 breast
A498 renal = tested on: A498 renal
HCT-116 colon = tested on: HCT-116 colon
HS 578T breast = tested on: HS 578T breast
HT29 colon = tested on: HT29 colon
KM12 colon = tested on: KM12 colon
HCT-15 colon = tested on: HCT-15 colon
CCRF-CEM leukemia = tested on: CCRF-CEM leukemia
IGROV1 ovarian = tested on: IGROV1 ovarian
HOP-92 NSCLC = tested on: HOP-92 NSCLC

Row | Compound | GI50 (MCF7 breast) | TGI (MCF7 breast) | GI50 (A498 renal) | TGI (A498 renal) | GI50 (HCT-116 colon) | TGI (HCT-116 colon) | GI50 (HS 578T breast) | TGI (HS 578T breast) | GI50 (HT29 colon) | TGI (HT29 colon) | GI50 (KM12 colon) | TGI (KM12 colon) | GI50 (HCT-15 colon) | TGI (HCT-15 colon) | GI50 (CCRF-CEM leukemia) | TGI (CCRF-CEM leukemia) | GI50 (IGROV1 ovarian) | TGI (IGROV1 ovarian) | GI50 (HOP-92 NSCLC) | TGI (HOP-92 NSCLC)
1 | O=C1CSC(=S)N1Cc1cccnc1 | 2.43 µM | 12.8 µM | 22.7 µM | 56.2 µM | 3.36 µM | 11 µM | 17 µM | 66.1 µM | 3.9 µM | 11.9 µM | 2.22 µM | 5.21 µM | 2.87 µM | 11.8 µM | 4.37 µM | 86.2 µM | 4.4 µM | 19 µM | – | –
2 | O=C1Nc2ccccc2/C1=C/c1cn(C(=O)c2c(Cl)cccc2Cl)c2ccccc12 | – | – | 1.25 µM | 4.32 µM | 1.67 µM | 3.38 µM | 2.17 µM | 8.98 µM | 3.92 µM | 14.9 µM | 1.76 µM | 3.95 µM | 3.46 µM | 22.6 µM | 0.337 µM | 15.6 µM | – | – | 1.54 µM | 6.33 µM
3 | Cn1cnc([N+](=O)[O-])c1SC1=NCCS1 | – | – | – | > 100 µM | – | > 100 µM | – | – | – | > 100 µM | – | > 100 µM | – | – | – | > 100 µM | – | > 100 µM | – | > 100 µM
4 | CCCCCCCCCCCCSC(=NC)NC | – | – | 2.63 µM | 8.69 µM | – | – | 2.41 µM | 7.07 µM | 2.06 µM | 9.33 µM | – | – | 1.55 µM | 3.39 µM | 2.63 µM | 9.97 µM | 2.52 µM | 5.83 µM | 1.39 µM | 5.49 µM
5 | O=C1CCCC(=O)C1=C(O)CCCCCCCCCCc1ccccc1 | – | – | – | – | – | > 100 µM | – | – | – | 79 µM | – | > 100 µM | – | – | – | 70.8 µM | – | > 100 µM | – | 39.6 µM
6 | COC(=O)c1oc2c(O)c(OC)c(Br)cc2c1C | 27.1 µM | > 100 µM | 32.7 µM | 65.8 µM | – | – | 33.7 µM | > 100 µM | 15.7 µM | 30.4 µM | 21.2 µM | 47.6 µM | 17.6 µM | 35.5 µM | 25 µM | 67.6 µM | 32.7 µM | 91.6 µM | – | –
7 | O=C1Cc2ccccc2N1c1c(Cl)cccc1Cl | – | – | – | > 100 µM | – | > 100 µM | – | – | – | > 100 µM | – | > 100 µM | – | > 100 µM | – | > 100 µM | – | > 100 µM | – | > 100 µM
8 | C#C[C@@]1(O)CCCC2=CC(=O)C[C@]21C | – | – | – | – | – | – | – | – | – | > 100 µM | – | > 100 µM | – | > 100 µM | – | > 100 µM | – | > 100 µM | – | > 100 µM
9 | Cc1nc(N)sc1N=Nc1cc(Cl)c([N+](=O)[O-])cc1Cl | – | 68.8 µM | – | – | – | > 100 µM | – | 95.9 µM | – | 28.7 µM | – | 37.7 µM | – | 79.3 µM | – | 35 µM | – | 47.2 µM | – | –
10 | Oc1ccc2c3c1OC1C(=NN=C4CCC5(O)C6Cc7ccc(O)c8c7C5(CCN6CC5CC5)C4O8)CCC4(O)C(C2)N(CC2CC2)CCC314 (configuration not stated) | – | – | – | > 67.7 µM | – | 30.1 µM | – | – | – | 32.8 µM | – | 40.2 µM | – | > 100 µM | – | > 68.1 µM | – | > 100 µM | – | 53.4 µM
11 | S=P1(c2ccccc2)Nc2ccc(Cl)cc2N1 (configuration not stated) | – | – | – | > 100 µM | – | – | – | – | – | > 100 µM | – | > 100 µM | – | > 100 µM | – | > 100 µM | – | > 100 µM | – | 71.9 µM
12 | COc1ccc(NC(=O)COC(=O)c2cccc3c(=O)c4ccccc4[nH]c23)cc1 | – | – | – | 39.6 µM | – | 25.5 µM | – | – | – | 29.5 µM | – | 30.7 µM | – | – | – | 28 µM | – | 91.3 µM | – | 58.9 µM
13 | N#CCCN(CCC#N)c1ccc(/C=N\c2nc(-c3ccccc3)cs2)cc1 | – | – | – | > 100 µM | – | > 100 µM | – | – | – | > 100 µM | – | – | – | > 100 µM | – | – | – | > 100 µM | – | > 100 µM
14 | CCCCCCCCCCCCCC(=O)OC(/C=C/C(C)C)C(O)C(O)C(OC)C(=O)NC1CCCCNC1=O (configuration not stated) | – | – | – | 14.6 µM | 1.22 µM | 3.97 µM | – | – | 4.03 µM | 4.51 µM | 3.92 µM | 4.59 µM | 4.25 µM | 4.8 µM | 5.7 µM | 11.9 µM | 0.65 µM | 5.15 µM | – | 3.76 µM
15 | Cn1cnc([N+](=O)[O-])c1Sc1nc2cccnc2s1 | – | – | – | > 100 µM | – | 29.5 µM | – | – | – | 63.7 µM | – | > 100 µM | – | 24.8 µM | – | – | – | 33 µM | – | 33.9 µM
16 | CCCC(=O)Nc1cc([N+](=O)[O-])c([N+](=O)[O-])cc1OC | – | > 100 µM | – | 32.5 µM | – | 32.3 µM | – | 46.5 µM | – | 29.3 µM | – | 27.2 µM | – | > 100 µM | – | 51.4 µM | – | 38.9 µM | – | –
